The numbers were not newly measured in patent publication US9125900B2 (priority 2005, dated 2015), which cites them from elsewhere.

Read-outs that look alike come from different tables or passages of the source.

For series [1], the system named is respiratory neurons.
Series [2] relates to respiratory neurons. As to conditions: for morphine-induced suppression of respiratory neuronal activity: anesthetized rats.
In a further series the target is 5-HT7 receptor (Homo sapiens, UniProt P34969).
A further series has as its target 5-HT4a receptor isoform (Homo sapiens, UniProt Q13639).

Chain of 5-HT7 receptor (P34969 whole entry, canonical isoform): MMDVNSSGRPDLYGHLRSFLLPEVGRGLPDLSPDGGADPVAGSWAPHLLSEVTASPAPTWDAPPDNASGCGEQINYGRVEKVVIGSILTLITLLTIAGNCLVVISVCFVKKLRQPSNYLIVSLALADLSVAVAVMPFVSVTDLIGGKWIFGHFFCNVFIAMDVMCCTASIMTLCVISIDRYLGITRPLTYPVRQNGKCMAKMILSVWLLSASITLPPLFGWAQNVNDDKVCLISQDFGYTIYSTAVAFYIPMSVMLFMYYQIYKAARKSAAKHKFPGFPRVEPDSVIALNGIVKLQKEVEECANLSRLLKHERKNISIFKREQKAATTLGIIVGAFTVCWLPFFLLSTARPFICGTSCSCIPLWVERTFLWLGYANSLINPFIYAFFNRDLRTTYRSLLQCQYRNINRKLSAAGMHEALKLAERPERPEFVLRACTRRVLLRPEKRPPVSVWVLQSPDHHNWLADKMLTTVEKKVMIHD
Chain of 5-HT4a receptor isoform (Q13639 1-387 isoform Q13639-2): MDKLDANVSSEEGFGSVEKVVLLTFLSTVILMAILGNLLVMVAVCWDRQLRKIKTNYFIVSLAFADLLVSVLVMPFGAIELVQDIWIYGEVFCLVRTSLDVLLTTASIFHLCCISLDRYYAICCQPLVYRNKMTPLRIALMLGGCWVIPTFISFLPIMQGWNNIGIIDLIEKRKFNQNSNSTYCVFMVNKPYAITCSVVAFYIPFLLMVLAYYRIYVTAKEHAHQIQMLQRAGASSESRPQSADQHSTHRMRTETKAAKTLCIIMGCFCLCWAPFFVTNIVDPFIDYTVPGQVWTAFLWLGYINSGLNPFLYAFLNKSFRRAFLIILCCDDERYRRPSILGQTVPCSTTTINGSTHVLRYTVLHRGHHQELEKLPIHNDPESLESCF

Consider `CCCN(CCC)C1CCc2cccc(O)c2C1` (racemic) [8-OH-DPAT, 8-hydroxy-2-(di-n-propylamino)tetralin], for which the phrenic nerve discharges result is on record as “suppressed phrenic nerve discharges” in the series on respiratory neurons [1] (anesthetized cats, higher doses 50 and 90 μg/kg); “increased the frequency of phrenic nerve discharges” in the series on respiratory neurons [1] (anesthetized cats, lower doses 10-50 μg/kg); “phrenic nerve discharges were decreased” in the series on respiratory neurons [1] (cats, 20 μg/kg intravenously). For the same compound, in the series on respiratory neurons [1] (cats), the “pentobarbital- and ketamine-induced suppression of respiratory neurons” value was “reverse pentobarbital- and ketamine-induced suppression of respiratory neurons”. For the same compound, the “respiratory frequency or ventilation rate” value with hypoxic goats is “did not increase respiratory frequency or ventilation rate”. Moreover, in the series on respiratory neurons [2] (100 μg/kg, rats), the “depressant effects on respiratory neurons” value is “no depressant effects on rat respiratory neurons”. Also, the “morphine-induced suppression of respiratory neuronal activity” value in the series on respiratory neurons [2] is “reversed the morphine-induced suppression of neuronal activity”.

In the case of `O=C1CC2(CCCC2)CC(=O)N1CCCCN1CCN(c2ncccn2)CC1` [buspirone], the “morphine-induced suppression of respiratory neuronal activity” value in the series on respiratory neurons [2] was “reversed the suppression”. Moreover, the receptor activity result on 5-HT7 receptor is “no effect on the 5-HT7 receptor”.

Take `COc1cc(N)c(Cl)cc1C(=O)NC1CN2CCC1CC2.Cl` (racemic) [zacopride, 4-amino-N-1-azabicyclo[2.2.2] oct-3-yl-5-chloro-2-methoxybenzamide hydrochloride]: the receptor activity result at 5-HT4a receptor isoform was “agonist of the 5-HT4a receptor isoform”.
